Assay results: PMC4151520 (Journal of medicinal chemistry, 2011)

Columns and labels:
[1] = room temperature, 2 weeks
[2] = target: hLRH-1 LBD alone (no lipid added) (Homo sapiens, UniProt O00482); assay: Native gel; assay type: binding; settings: doses up to 100 µM
[3] = Solubility; assay type: physicochemical
[4] = target: mouse SF-1 (Mus musculus, UniProt P33242); assay: RT-qPCR of endogenous target genes in HEK293 cells stably expressing SF-1; assay type: cell-based; settings: 10 µM, 24 h, relative to DMSO
Chain of mouse SF-1 (P33242 whole entry): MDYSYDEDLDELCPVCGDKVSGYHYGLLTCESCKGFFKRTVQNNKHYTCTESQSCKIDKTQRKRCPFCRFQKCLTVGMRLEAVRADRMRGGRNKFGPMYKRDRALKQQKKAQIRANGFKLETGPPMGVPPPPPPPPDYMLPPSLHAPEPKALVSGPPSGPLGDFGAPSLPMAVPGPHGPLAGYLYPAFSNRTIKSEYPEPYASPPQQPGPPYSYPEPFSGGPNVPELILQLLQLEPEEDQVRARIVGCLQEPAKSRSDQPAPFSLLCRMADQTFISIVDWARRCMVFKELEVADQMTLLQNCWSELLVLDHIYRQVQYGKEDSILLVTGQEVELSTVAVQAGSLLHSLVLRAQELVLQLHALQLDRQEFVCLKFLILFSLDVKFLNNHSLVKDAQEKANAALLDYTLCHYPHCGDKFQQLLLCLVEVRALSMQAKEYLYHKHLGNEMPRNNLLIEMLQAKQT

[5] = target: hLRH-1 (Homo sapiens, UniProt O00482); assay: RT-qPCR of endogenous target genes in HEK293 cells stably expressing hLRH-1; assay type: cell-based; settings: 10 µM, 24 h
Chain of hLRH-1 (O00482 whole entry): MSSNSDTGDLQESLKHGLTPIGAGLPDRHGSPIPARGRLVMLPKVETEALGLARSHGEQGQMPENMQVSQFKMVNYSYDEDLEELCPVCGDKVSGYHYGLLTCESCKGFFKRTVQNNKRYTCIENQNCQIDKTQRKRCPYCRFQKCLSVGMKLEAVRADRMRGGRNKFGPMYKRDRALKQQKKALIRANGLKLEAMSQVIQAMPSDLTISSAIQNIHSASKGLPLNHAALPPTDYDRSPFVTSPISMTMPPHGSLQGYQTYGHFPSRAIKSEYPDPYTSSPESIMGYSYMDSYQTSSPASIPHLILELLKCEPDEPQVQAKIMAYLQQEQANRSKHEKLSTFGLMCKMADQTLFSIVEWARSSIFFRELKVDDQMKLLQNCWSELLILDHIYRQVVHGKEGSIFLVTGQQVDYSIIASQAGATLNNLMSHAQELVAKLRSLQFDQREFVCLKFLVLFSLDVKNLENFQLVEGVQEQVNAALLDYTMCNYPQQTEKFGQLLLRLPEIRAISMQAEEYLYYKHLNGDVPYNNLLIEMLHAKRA

[6] = test system: LRH-1; settings: cited from earlier work
[7] = test system: H295R cell line; settings: cited from earlier work
[8] = test system: SW-13 cell line; settings: cited from earlier work
[9] = test system: SF-1; settings: read-out: IC50 inverse agonist of SF-1; cited from earlier work
[10] = target: human LRH-1 ligand binding domain, labeled with biotin (human, UniProt O00482 300-541, biotin (site not stated)); assay: FRET or BRET
Chain of human LRH-1 ligand binding domain, labeled with biotin (O00482 300-541): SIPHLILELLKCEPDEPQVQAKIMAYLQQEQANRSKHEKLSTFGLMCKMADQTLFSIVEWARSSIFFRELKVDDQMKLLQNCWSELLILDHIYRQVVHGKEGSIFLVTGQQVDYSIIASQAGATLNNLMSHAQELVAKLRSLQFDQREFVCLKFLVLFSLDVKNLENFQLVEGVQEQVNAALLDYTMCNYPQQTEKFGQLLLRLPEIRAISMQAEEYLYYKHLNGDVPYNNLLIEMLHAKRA

Chain of hLRH-1 LBD alone (no lipid added) (O00482 300-539 limits assumed): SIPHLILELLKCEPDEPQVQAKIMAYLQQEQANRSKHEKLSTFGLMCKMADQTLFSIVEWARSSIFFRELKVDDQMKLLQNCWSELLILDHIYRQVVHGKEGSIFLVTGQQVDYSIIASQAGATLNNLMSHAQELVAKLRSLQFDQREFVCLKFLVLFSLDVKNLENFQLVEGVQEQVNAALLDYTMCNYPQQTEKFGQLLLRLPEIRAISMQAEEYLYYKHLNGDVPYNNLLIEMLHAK

## C=C(c1ccccc1)[C@@]12CCC[C@@H]1CC(CCCCCC)=C2c1ccccc1 (racemic) [Compound 18a, rac-(1R,5R)-3-Hexyl-2-phenyl-1-(1-phenylvinyl)-bicyclo[3.3.0]oc-t-2-ene]
[1]
  stability in CDCl3 in the presence of daylight: stable

## C=C(CCCC)[C@@]12CCC[C@@H]1CC(CCCCCC)=C2c1ccccc1 (racemic) [Compound 18j, rac-(1R,5R)-1-(Hex-1-en-2-yl)-3-hexyl-2-phenyl-bicyclo[3.3.0]oct-2-ene]
[2]
  shift in hLRH-1 LBD native PAGE migration: does not appear competent to shift hLRH-1 LBD migration
[3]
  solubility, in words: very poor solubility in aqueous media

## C=C(c1ccccc1)[C@@]12CCC[C@@H]1CC(CCCCCC)=C2CCCO (racemic) [Compound 18s, rac-(1R,5R)-3-Hexyl-1-(phenylvinyl)-2-(propan-3-ol)-bicyclo[3.-3.0]oct-2-ene]
[2]
  shift in hLRH-1 LBD native PAGE migration: can consistently shift hLRH-1 LBD migration in this native gel assay, albeit with reduced potency as compared to 24-exo

## C=C(c1ccccc1)[C@@]12CN(C)C[C@@H]1CC(CCCCCC)=C2c1ccccc1 (racemic) [Compound 20a]
[3]
  solubility, in words: improved solubility
[4]
  SF-1-mediated transcription of endogenous SHP, StAR, G0S2 and MeOX1 target genes: significantly activate
[5]
  LRH-1 transcription of the SHP and MeOx1 genes: failed to activate
  LRH-1 transcription of the StAR and G0S2 genes: activated

## C=C(c1ccccc1)[C@@]12CC[C@@H](O)[C@@H]1CC(CCCCCC)=C2c1ccccc1 (racemic) [Compound 24-exo, rac-(1R,5R,6R)-3-Hexyl-6-hydroxy-2-phenyl-1-(phenylvinyl)-bicyclo[3.3.0]oct-2-ene]
[3]
  solubility, in words: reasonable solubility in polar solvents
[4]
  SF-1-mediated transcription of endogenous SHP, StAR, G0S2 and MeOX1 target genes: significantly activate

## CCCCCCCOc1ccc(O)cc1 [Compound 8, p-heptyloxyphenol]
[6]
  activity against LRH-1: no activity
[7]
  proliferation of H295R: inhibit proliferation
[8]
  proliferation of SW-13 (SF-1 negative): had the same effect

## CCOC(=O)C(C)Oc1cccc2c(=O)n(CC(=O)Nc3ccc(OC)cc3)ccc12 (centres unmarked) [Compound 9]
[7]; 10 µM
  doxycycline (DOX) induced proliferation of H295R: modestly suppressed
[8]; 10 µM
  effect on SW-13 (SF-1 negative): little effect
[9]
  IC50: 200 nM

B1: biotin-labeled peptide derived from TIF-2 amino acids 737-757 (peptide)
peptide: QEPVSPKKKENALLRYLLDKDDTKD
HELM: PEPTIDE1{[O=C1N[C@H]2[C@H](CS[C@H]2CCCCC(=O)[*:2])N1].Q.E.P.V.S.P.K.K.K.E.N.A.L.L.R.Y.L.L.D.K.D.D.T.K.D.[am]}$$$$V2.0
SMILES: CC(C)C[C@H](NC(=O)[C@H](C)NC(=O)[C@H](CC(N)=O)NC(=O)[C@H](CCC(=O)O)NC(=O)[C@H](CCCCN)NC(=O)[C@H](CCCCN)NC(=O)[C@H](CCCCN)NC(=O)[C@@H]1CCCN1C(=O)[C@H](CO)NC(=O)[C@@H](NC(=O)[C@@H]1CCCN1C(=O)[C@H](CCC(=O)O)NC(=O)[C@H](CCC(N)=O)NC(=O)CCCC[C@@H]1SC[C@@H]2NC(=O)N[C@@H]21)C(C)C)C(=O)N[C@@H](CC(C)C)C(=O)N[C@@H](CCCNC(=N)N)C(=O)N[C@@H](Cc1ccc(O)cc1)C(=O)N[C@@H](CC(C)C)C(=O)N[C@@H](CC(C)C)C(=O)N[C@@H](CC(=O)O)C(=O)N[C@@H](CCCCN)C(=O)N[C@@H](CC(=O)O)C(=O)N[C@@H](CC(=O)O)C(=O)N[C@H](C(=O)N[C@@H](CCCCN)C(=O)N[C@@H](CC(=O)O)C(N)=O)[C@@H](C)O
[10]
  binding result: binds
